Results as given in ChEMBL document CHEMBL5352469, “Solubility-driven optimization of benzothiopyranone salts leading to a preclinical candidate with improved pharmacokinetic properties and activity against Mycobacterium tuberculosis” (Eur J Med Chem, 2023).
In brackets after ≈: the same amount, converted by molar mass.

Key:
[1] = Cmax in Sprague-Dawley rat at 50 mg/kg, po measured upto 24 hrs by LC/MS/MS analysis; type: ADME, organism-based; set-up: time < 24 hrs, dose 50 mg/kg, route po; conditions: in vivo
[2] = tested on: Mycobacterium tuberculosis; experiment: Antibacterial activity against Mycobacterium tuberculosis H37Rv BALB/c mouse model assessed as reduction in CFU in lungs at 50 mg/kg via oral gavage for 30 days (reference value: 5.92 +/-0.29); type: functional; conditions: time 30 day
[3] = Lipophilicity, log D of the compound in octanol/water at pH 7.6 incubated for 72 hrs under shaking condition by shake flask based HPLC-PDA method; type: physicochemical; conditions: pH 7.6, 72 h
[4] = Apparent permeability across apical to basolateral side in human Caco-2 cells incubated for 21 days; type: ADME, cell-based; conditions: time 21 day
[5] = Tmax in Balb/c mouse at 50 mg/kg, po measured upto 24 hrs by LC/MS/MS analysis; type: ADME, organism-based; conditions: in vivo
[6] = Efflux ratio of apparent permeability across basolateral to apical side over apical to basolateral side in human Caco-2 cells; type: ADME, cell-based
[7] = tested on: Mycobacterium tuberculosis; experiment: Antibacterial activity against Mycobacterium tuberculosis H37Rv BALB/c mouse model assessed as reduction in CFU in lungs at 25 mg/kg via oral gavage for 30 days (reference value: 5.92 +/-0.29); type: functional; conditions: time 30 day
[8] = Chemical stability of the compound under 4500 +/- 500 lx light condition by measuring compound purity incubated for 10 days by HPLC-PDA method relative to initial purity; type: physicochemical; conditions: 240 h; time 10 day
[9] = Lipophilicity, log D of the compound in octanol/water at pH 2.0 incubated for 72 hrs under shaking condition by shake flask based HPLC-PDA method; type: physicochemical; conditions: pH 2, 72 h
[10] = Cmax in Balb/c mouse at 5 mg/kg, iv measured upto 24 hrs by LC/MS/MS analysis; type: ADME, organism-based; set-up: dose 5 mg/kg, time < 24 hrs, route iv; conditions: in vivo
[11] = Chemical stability of the compound under 60 degree C high temperature by measuring compound purity incubated for 10 days by HPLC-PDA method analysis relative to initial purity; type: physicochemical; conditions: 240 h; time 10 day
[12] = tested on: Mycobacterium tuberculosis; experiment: Antibacterial activity against Mycobacterium tuberculosis H37Rv BALB/c mouse model assessed as reduction in CFU in lungs at 100 mg/kg via oral gavage for 30 days (reference value: 5.92 +/-0.29); type: functional; conditions: time 30 day
[13] = Chemical stability of the compound under 92.5% humidity by measuring compound purity incubated for 10 days by HPLC-PDA method relative to initial purity; type: physicochemical; conditions: 240 h; time 10 day
[14] = Cmax in Sprague-Dawley rat at 5 mg/kg, iv measured upto 24 hrs by LC/MS/MS analysis; type: ADME, organism-based; set-up: time < 24 hrs, dose 5 mg/kg, route iv; conditions: in vivo
[15] = AUC (0 to t) in Balb/c mouse at 50 mg/kg, po measured upto 24 hrs by LC/MS/MS analysis; type: ADME, organism-based; set-up: dose 50 mg/kg, time < 24 hrs, route po; conditions: in vivo; for AUCt: 24 h
[16] = Clearance in Sprague-Dawley rat at 5 mg/kg, iv measured upto 24 hrs by LC/MS/MS analysis; type: ADME, organism-based; conditions: in vivo
[17] = MRT (0 to infinity) in Sprague-Dawley rat at 5 mg/kg, iv measured upto 24 hrs by LC/MS/MS analysis; type: ADME, organism-based; conditions: in vivo
[18] = Oral bioavailability in Balb/c mouse at 50 mg/kg measured upto 24 hrs by LC/MS/MS analysis; type: ADME, organism-based; conditions: in vivo; for F: po, 50 mg/kg, 24 h
[19] = Lipophilicity, log D of the compound in octanol/water at pH 4.0 incubated for 72 hrs under shaking condition by shake flask based HPLC-PDA method; type: physicochemical; conditions: pH 4, 72 h
[20] = Elimination half life in Balb/c mouse at 5 mg/kg, iv measured upto 24 hrs by LC/MS/MS analysis; type: ADME, organism-based; conditions: in vivo, read-out: beta t1/2 (converted)
[21] = AUC (0 to t) in Balb/c mouse at 5 mg/kg, iv measured upto 24 hrs by LC/MS/MS analysis; type: ADME, organism-based; set-up: time < 24 hrs, dose 5 mg/kg, route iv; conditions: in vivo; for AUCt: 24 h
[22] = Lipophilicity, log D of the compound in octanol/water at pH 6.8 incubated for 72 hrs under shaking condition by shake flask based HPLC-PDA method; type: physicochemical; conditions: pH 6.8, 72 h
[23] = AUC (0 to t) in Sprague-Dawley rat at 5 mg/kg, iv measured upto 24 hrs by LC/MS/MS analysis; type: ADME, organism-based; set-up: time < 24 hrs, dose 5 mg/kg, route iv; conditions: in vivo
[24] = Tmax in Sprague-Dawley rat at 50 mg/kg, po measured upto 24 hrs by LC/MS/MS analysis; type: ADME, organism-based; conditions: in vivo
[25] = Cmax in Balb/c mouse at 50 mg/kg, po measured upto 24 hrs by LC/MS/MS analysis; type: ADME, organism-based; set-up: time < 24 hrs, dose 50 mg/kg, route po; conditions: in vivo
[26] = MRT (0 to infinity) in Sprague-Dawley rat at 50 mg/kg, po measured upto 24 hrs by LC/MS/MS analysis; type: ADME, organism-based; conditions: in vivo
[27] = Aqueous solubility of compound by HPLC-PDA method; type: physicochemical; conditions: buffer
[28] = Apparent permeability across basolateral to apical side in human Caco-2 cells incubated for 21 days; type: ADME, cell-based; conditions: time 21 day
[29] = tested on: Mycobacterium tuberculosis; experiment: Antibacterial activity against Mycobacterium tuberculosis H37Rv BALB/c mouse model assessed as reduction in delta CFU in lungs at 100 mg/kg via oral gavage for 30 days; type: functional; conditions: time 30 day
[30] = Elimination half life in Balb/c mouse at 50 mg/kg, po measured upto 24 hrs by LC/MS/MS analysis; type: ADME, organism-based; conditions: in vivo, read-out: beta t1/2 (converted)
[31] = AUC (0 to infinity) in Sprague-Dawley rat at 50 mg/kg, po measured upto 24 hrs by LC/MS/MS analysis; type: ADME, organism-based; set-up: time < 24 hrs, dose 50 mg/kg, route po; conditions: in vivo
[32] = Lipophilicity, log P of the compound in octanol/water incubated for 72 hrs under shaking condition by shake flask based HPLC-PDA method; type: physicochemical; conditions: 72 h
[33] = Elimination half life in Sprague-Dawley rat at 50 mg/kg, po measured upto 24 hrs by LC/MS/MS analysis; type: ADME, organism-based; conditions: in vivo, read-out: beta t1/2 (converted)
[34] = Elimination half life in Sprague-Dawley rat at 5 mg/kg, iv measured upto 24 hrs by LC/MS/MS analysis; type: ADME, organism-based; conditions: in vivo, read-out: beta t1/2 (converted)
[35] = AUC (0 to infinity) in Sprague-Dawley rat at 5 mg/kg, iv measured upto 24 hrs by LC/MS/MS analysis; type: ADME, organism-based; set-up: time < 24 hrs, dose 5 mg/kg, route iv; conditions: in vivo
[36] = tested on: Mycobacterium tuberculosis; experiment: Antibacterial activity against Mycobacterium tuberculosis H37Rv BALB/c mouse model assessed as reduction in delta CFU in lungs at 50 mg/kg via oral gavage for 30 days; type: functional; conditions: time 30 day
[37] = tested on: Mycobacterium tuberculosis; experiment: Antibacterial activity against Mycobacterium tuberculosis H37Rv BALB/c mouse model assessed as reduction in delta CFU in lungs at 25 mg/kg via oral gavage for 30 days; type: functional; conditions: time 30 day
[38] = AUC (0 to t) in Sprague-Dawley rat at 50 mg/kg, po measured upto 24 hrs by LC/MS/MS analysis; type: ADME, organism-based; set-up: dose 50 mg/kg, time < 24 hrs, route po; conditions: in vivo
[39] = Oral bioavailability in Sprague-Dawley rat at 50 mg/kg measured upto 24 hrs by LC/MS/MS analysis; type: ADME, organism-based; conditions: in vivo

SMILES	Cmax [1]	logD [3]	Papp A→B [4]	Tmax [5]	efflux ratio [6]	Stability [8]	logD [9]	Cmax [10]	Stability [11]	Stability [13]	Cmax [14]	AUCt [15]	clearance [16]	MRT inf [17]	F [18]	half-life [20]	Cmax [25]	solubility ([27]; read-out: solubility)	Papp B→A [28]	half-life [30]	further results
O=c1cc(N2CCN(CC3CCCCC3)CC2)sc2c([N+](=O)[O-])cc(C(F)(F)F)cc12	109 ng/mL	> 4.32	11.8 ×10⁻⁶ cm/s	0.5 h	0.1	98.2%	1.29	8240 ng/mL	100%	100%	3560 ng/mL	1581 ng·h/mL	53.8 mL/min/kg	2.99 h	13.1%	6.54 h	588 ng/mL	0.15 µg/mL (≈ 0.329 µM)	0.69 ×10⁻⁶ cm/s	7.25 h	Activity [2]: 2.34 log10CFU; Activity [7]: 3.64 log10CFU; Activity [12]: 2.19 log10CFU; logD [19]: 3.72; AUCt [21]: 4954 ng·h/mL; logD [22]: > 4.3; AUC(0-t) at 24 h [23]: 1540 ng·h/mL; Tmax [24]: 3.67 h; MRT inf [26]: 5.94 h; Activity [29]: 3.73 log10CFU; AUC(0-inf) [31]: 769 ng·h/mL; logP [32]: 3.71; half-life [33]: 3.83 h; half-life [34]: 8.27 h; AUC(0-inf) [35]: 1580 ng·h/mL; Activity [36]: 3.58 log10CFU; Activity [37]: 2.28 log10CFU; AUC(0-t) at 24 h [38]: 741 ng·h/mL; bioavailability [39]: 4.87%
O=c1nc(N2CCN(CC3CCCCC3)CC2)sc2c([N+](=O)[O-])cc(C(F)(F)F)cc12 [MACOZINONE]																					solubility [27]: 0.11 µg/mL (≈ 0.241 µM)
O=C(O)C[C@H](O)C(=O)O.O=c1cc(N2CCN(CC3CCCCC3)CC2)sc2c([N+](=O)[O-])cc(C(F)(F)F)cc12			7.78 ×10⁻⁶ cm/s	1 h		90.6%		3950 ng/mL	98.2%	98.3%						5.9 h	979 ng/mL	158 µg/mL	0.28 ×10⁻⁶ cm/s	6 h	AUC(0-t) at 24 h ([15]; Balb/c): 7280 ng·h/mL; bioavailability ([18]; Balb/c): 27.7%; AUC(0-t) at 24 h ([21]; Balb/c): 2730 ng·h/mL
Cl.O=c1cc(N2CCN(CC3CCCCC3)CC2)sc2c([N+](=O)[O-])cc(C(F)(F)F)cc12	163 ng/mL	> 4.29	0.39 ×10⁻⁶ cm/s	0.42 h	0.36	99.8%	1.3	5990 ng/mL	100%	100%	3490 ng/mL	2251 ng·h/mL	43.6 mL/min/kg	2.52 h	14.1%	7.59 h	502 ng/mL	28.1 µg/mL	0.14 ×10⁻⁶ cm/s	6.72 h	logD [19]: 3.77; AUCt [21]: 6434 ng·h/mL; logD [22]: > 4.27; AUC(0-t) at 24 h [23]: 1890 ng·h/mL; Tmax [24]: 1.67 h; MRT inf [26]: 5.13 h; AUC(0-inf) [31]: 982 ng·h/mL; logP [32]: 2.56; half-life [33]: 5.38 h; half-life [34]: 7.92 h; AUC(0-inf) [35]: 1940 ng·h/mL; AUC(0-t) at 24 h [38]: 961 ng·h/mL; bioavailability [39]: 5.07%
